Results taken from patent US20020177180A1, “pH-indicator based assay for selective enzymes” (ThermoGen, Inc., priority 1998, published 2002).

How the values were obtained:
Test in all cases: Initial screening of ThermoGen esterases toward esters 1-31 (pH indicator), specific activity
Assay type in all cases: biochemical
Settings in all cases: 1 mM substrate, pH 7.2, 7 vol % acetonitrile, 25° C.
esterase E016 = test system: esterase E016
Description: (§1) Initial screening measures the initial rate of hydrolysis of different esters. The rate of reaction was measured by monitoring the release of protons using a pH indicator, 4-nitrophenol. In this assay, the yellow color of the phenoxide disappears as the reaction proceeds. The amount of ester hydrolyzed can be measured quantitatively, as is known in the art.
(§2) To survey the substrate selectivity of the ThermoGen esterases, the ability of the enzymes to hydrolyze thirty-one different commercially-available esters, Scheme 1 (FIG. 9, Table 6).

esterase E006 = test system: esterase E006
Description: as §1, §2

esterase E015 = test system: esterase E015
Description: as §1, §2

esterase E014 = test system: esterase E014
Description: as §1, §2

esterase E020 = test system: esterase E020
Description: as §1, §2

esterase E012 = test system: esterase E012
Description: as §1, §2

esterase E011 = test system: esterase E011
Description: as §1

In the case of C=COC(=O)CCCCC [Substrate 4], the “Specific activity, esterase E016” value (esterase E016) was 1300 mmol ester hydrolyzed/min/mg protein, the “Specific activity, esterase E006” value (esterase E006) was 1700 mmol ester hydrolyzed/min/mg protein and the “Specific activity, esterase E015” value (esterase E015) was 1100 mmol ester hydrolyzed/min/mg protein. For the same compound, the “Specific activity, esterase E014” value (esterase E014) was 540 mmol ester hydrolyzed/min/mg protein, the “Specific activity, esterase E020” value (esterase E020) was 3000 mmol ester hydrolyzed/min/mg protein and the “Specific activity, esterase E012” value (esterase E012) was 48 mmol ester hydrolyzed/min/mg protein. For the same compound, the “Specific activity, esterase E011” value (esterase E011) was 680 mmol ester hydrolyzed/min/mg protein.

With CCCCCCCCCCCCCC(=O)Oc1ccc2nc3ccc(=O)cc-3oc2c1 [Substrate 6, Resorufin tetradecanoate, reference compound] the “Specific activity, esterase E016” value (esterase E016) was 15 mmol ester hydrolyzed/min/mg protein, the “Specific activity, esterase E006” value (esterase E006) was 0.55 mmol ester hydrolyzed/min/mg protein and the “Specific activity, esterase E015” value (esterase E015) was 330 mmol ester hydrolyzed/min/mg protein. For the same compound, the “Specific activity, esterase E014” value (esterase E014) was 170 mmol ester hydrolyzed/min/mg protein, the “Specific activity, esterase E020” value (esterase E020) was 1200 mmol ester hydrolyzed/min/mg protein and the “Specific activity, esterase E012” value (esterase E012) was 27 mmol ester hydrolyzed/min/mg protein. For the same compound, the “Specific activity, esterase E011” value (esterase E011) was 280 mmol ester hydrolyzed/min/mg protein.

In the case of CCOC(=O)CBr [Substrate 18], the “Specific activity, esterase E016” value (esterase E016) was 16 mmol ester hydrolyzed/min/mg protein, the “Specific activity, esterase E006” value (esterase E006) was 4.8 mmol ester hydrolyzed/min/mg protein and the “Specific activity, esterase E015” value (esterase E015) was 100 mmol ester hydrolyzed/min/mg protein. For the same compound, the “Specific activity, esterase E014” value (esterase E014) was 37 mmol ester hydrolyzed/min/mg protein, the “Specific activity, esterase E020” value (esterase E020) was 3.1 mmol ester hydrolyzed/min/mg protein and the “Specific activity, esterase E012” value (esterase E012) was 5.9 mmol ester hydrolyzed/min/mg protein. For the same compound, the “Specific activity, esterase E011” value (esterase E011) was 5.5 mmol ester hydrolyzed/min/mg protein.

For CCCC(=O)OCC(COC(=O)CCC)OC(=O)CCC [Substrate 29], the “Specific activity, esterase E016” value (esterase E016) was 130 mmol ester hydrolyzed/min/mg protein, the “Specific activity, esterase E006” value (esterase E006) was 370 mmol ester hydrolyzed/min/mg protein and the “Specific activity, esterase E015” value (esterase E015) was 550 mmol ester hydrolyzed/min/mg protein. The “Specific activity, esterase E014” value (esterase E014) was 280 mmol ester hydrolyzed/min/mg protein, the “Specific activity, esterase E020” value (esterase E020) was 560 mmol ester hydrolyzed/min/mg protein and the “Specific activity, esterase E012” value (esterase E012) was 37 mmol ester hydrolyzed/min/mg protein. For the same compound, the “Specific activity, esterase E011” value (esterase E011) was 450 mmol ester hydrolyzed/min/mg protein.

With C=C(C)OC(C)=O [Substrate 27] the “Specific activity, esterase E016” value (esterase E016) was 49 mmol ester hydrolyzed/min/mg protein, the “Specific activity, esterase E006” value (esterase E006) was 69 mmol ester hydrolyzed/min/mg protein and the “Specific activity, esterase E015” value (esterase E015) was 100 mmol ester hydrolyzed/min/mg protein. The “Specific activity, esterase E014” value (esterase E014) was 0.73 mmol ester hydrolyzed/min/mg protein, the “Specific activity, esterase E020” value (esterase E020) was 3.3 mmol ester hydrolyzed/min/mg protein and the “Specific activity, esterase E012” value (esterase E012) was 2.4 mmol ester hydrolyzed/min/mg protein. The “Specific activity, esterase E011” value (esterase E011) was 45 mmol ester hydrolyzed/min/mg protein.

In the case of CCCOC(C)=O [Substrate 24], the “Specific activity, esterase E016” value (esterase E016) was <2 mmol ester hydrolyzed/min/mg protein, the “Specific activity, esterase E006” value (esterase E006) was 0.31 mmol ester hydrolyzed/min/mg protein and the “Specific activity, esterase E015” value (esterase E015) was 0.26 mmol ester hydrolyzed/min/mg protein. For the same compound, the “Specific activity, esterase E014” value (esterase E014) was <0.1 mmol ester hydrolyzed/min/mg protein, the “Specific activity, esterase E020” value (esterase E020) was 0.85 mmol ester hydrolyzed/min/mg protein and the “Specific activity, esterase E012” value (esterase E012) was 2.8 mmol ester hydrolyzed/min/mg protein. The “Specific activity, esterase E011” value (esterase E011) was 0.25 mmol ester hydrolyzed/min/mg protein.

In the case of C=COC(=O)CCCCCCCCCCCCC [Substrate 7], the “Specific activity, esterase E016” value (esterase E016) was 21 mmol ester hydrolyzed/min/mg protein, the “Specific activity, esterase E006” value (esterase E006) was 0.61 mmol ester hydrolyzed/min/mg protein and the “Specific activity, esterase E015” value (esterase E015) was 3.0 mmol ester hydrolyzed/min/mg protein. The “Specific activity, esterase E014” value (esterase E014) was 0.81 mmol ester hydrolyzed/min/mg protein, the “Specific activity, esterase E020” value (esterase E020) was 1.0 mmol ester hydrolyzed/min/mg protein and the “Specific activity, esterase E012” value (esterase E012) was 7.6 mmol ester hydrolyzed/min/mg protein. For the same compound, the “Specific activity, esterase E011” value (esterase E011) was 0.45 mmol ester hydrolyzed/min/mg protein.

For COC(=O)Cc1ccccc1 [Substrate 22], the “Specific activity, esterase E016” value (esterase E016) was <2 mmol ester hydrolyzed/min/mg protein, the “Specific activity, esterase E006” value (esterase E006) was 0.16 mmol ester hydrolyzed/min/mg protein and the “Specific activity, esterase E015” value (esterase E015) was 0.14 mmol ester hydrolyzed/min/mg protein. For the same compound, the “Specific activity, esterase E014” value (esterase E014) was <0.1 mmol ester hydrolyzed/min/mg protein, the “Specific activity, esterase E020” value (esterase E020) was 0.28 mmol ester hydrolyzed/min/mg protein and the “Specific activity, esterase E012” value (esterase E012) was <2 mmol ester hydrolyzed/min/mg protein. For the same compound, the “Specific activity, esterase E011” value (esterase E011) was <0.1 mmol ester hydrolyzed/min/mg protein.

For CCCCOC(C)=O [Substrate 25], the “Specific activity, esterase E016” value (esterase E016) was 13 mmol ester hydrolyzed/min/mg protein, the “Specific activity, esterase E006” value (esterase E006) was 0.54 mmol ester hydrolyzed/min/mg protein and the “Specific activity, esterase E015” value (esterase E015) was 1.0 mmol ester hydrolyzed/min/mg protein. The “Specific activity, esterase E014” value (esterase E014) was 0.21 mmol ester hydrolyzed/min/mg protein, the “Specific activity, esterase E020” value (esterase E020) was 2.0 mmol ester hydrolyzed/min/mg protein and the “Specific activity, esterase E012” value (esterase E012) was <2 mmol ester hydrolyzed/min/mg protein. The “Specific activity, esterase E011” value (esterase E011) was 0.5 mmol ester hydrolyzed/min/mg protein.

For C=COC(=O)CCCCCCC [Substrate 5], the “Specific activity, esterase E016” value (esterase E016) was 1200 mmol ester hydrolyzed/min/mg protein, the “Specific activity, esterase E006” value (esterase E006) was 960 mmol ester hydrolyzed/min/mg protein and the “Specific activity, esterase E015” value (esterase E015) was 320 mmol ester hydrolyzed/min/mg protein. For the same compound, the “Specific activity, esterase E014” value (esterase E014) was 8.0 mmol ester hydrolyzed/min/mg protein, the “Specific activity, esterase E020” value (esterase E020) was 1200 mmol ester hydrolyzed/min/mg protein and the “Specific activity, esterase E012” value (esterase E012) was 50 mmol ester hydrolyzed/min/mg protein. The “Specific activity, esterase E011” value (esterase E011) was 260 mmol ester hydrolyzed/min/mg protein.

For CC(C)Cc1ccc(C(C)C(=O)Oc2ccc([N+](=O)[O-])cc2)cc1 (racemic) [Substrate 2, (±)-4-nitrophenyl 2-(4-isobutylphenyl)propanoate, reference compound], the “Specific activity, esterase E016” value (esterase E016) was 220 mmol ester hydrolyzed/min/mg protein, the “Specific activity, esterase E006” value (esterase E006) was 260 mmol ester hydrolyzed/min/mg protein and the “Specific activity, esterase E015” value (esterase E015) was 350 mmol ester hydrolyzed/min/mg protein. The “Specific activity, esterase E014” value (esterase E014) was 170 mmol ester hydrolyzed/min/mg protein, the “Specific activity, esterase E020” value (esterase E020) was 370 mmol ester hydrolyzed/min/mg protein and the “Specific activity, esterase E012” value (esterase E012) was 11 mmol ester hydrolyzed/min/mg protein. For the same compound, the “Specific activity, esterase E011” value (esterase E011) was 160 mmol ester hydrolyzed/min/mg protein.

With COC(=O)CBr [Substrate 19] the “Specific activity, esterase E016” value (esterase E016) was 7.6 mmol ester hydrolyzed/min/mg protein, the “Specific activity, esterase E006” value (esterase E006) was 1.9 mmol ester hydrolyzed/min/mg protein and the “Specific activity, esterase E015” value (esterase E015) was 2.6 mmol ester hydrolyzed/min/mg protein. The “Specific activity, esterase E014” value (esterase E014) was 0.73 mmol ester hydrolyzed/min/mg protein, the “Specific activity, esterase E020” value (esterase E020) was 1.6 mmol ester hydrolyzed/min/mg protein and the “Specific activity, esterase E012” value (esterase E012) was 2.4 mmol ester hydrolyzed/min/mg protein. The “Specific activity, esterase E011” value (esterase E011) was 1.6 mmol ester hydrolyzed/min/mg protein.

In the case of CC(C(=O)Oc1ccc([N+](=O)[O-])cc1)c1ccccc1 (racemic) [Substrate 1, (±)-4-nitrophenyl-2-phenylpropanoate, reference compound], the “Specific activity, esterase E016” value (esterase E016) was 63 mmol ester hydrolyzed/min/mg protein, the “Specific activity, esterase E006” value (esterase E006) was 120 mmol ester hydrolyzed/min/mg protein and the “Specific activity, esterase E015” value (esterase E015) was 89 mmol ester hydrolyzed/min/mg protein. For the same compound, the “Specific activity, esterase E014” value (esterase E014) was 1.2 mmol ester hydrolyzed/min/mg protein, the “Specific activity, esterase E020” value (esterase E020) was 110 mmol ester hydrolyzed/min/mg protein and the “Specific activity, esterase E012” value (esterase E012) was 3.1 mmol ester hydrolyzed/min/mg protein. For the same compound, the “Specific activity, esterase E011” value (esterase E011) was 5.1 mmol ester hydrolyzed/min/mg protein.
